This note sets out measurements from ChEMBL document CHEMBL5608182, “Synthesis and evaluation of neuroactive steroids with novel pharmacophore at C-21 let identify a compound with advantageous PK profile and higher EC50 and Emax as PAM on GABAA receptor” (Eur J Med Chem, 2024).

Series [1] relates to Rattus norvegicus. The series is described as follows: Antiseizure activity in PTZ-induced male Sprague-Dawley rat acute seizure model assessed as increase in latency to tonic seizures at 23.2 micromol/kg, po pretreated for 2 hrs followed by PTZ addition and measured after 60 mins (reference value: 77 +/- 13.4 sec). As to conditions: dose 23.2 µmol/kg, time 180 min, 3 h. It counts as functional.

A short description of series [2]: Toxicity in male Sprague-Dawley rat assessed as risk of consciousness loss by measuring time for first loss of righting reflex at 29.2 micromol/kg, ip measured within 4 hrs. It counts as organism-based. As to conditions: in vivo, dose 29.2 µmol/kg.
The nature of series [3]: Acid dissociation constant, pKa of the compound. Format: physicochemical.
The target of series [4] is GABA-A receptor; alpha-1/beta-2/gamma-2 (Homo sapiens) (UniProt P14867+P47870+P18507). The series is described as follows: Positive allosteric modulation of synaptic alpha1beta2gamma2 GABA-A receptor (unknown origin) transfected in LTK cells assessed as potentiation of GABA-induced peak current amplitude by measuring maximal efficacy at 0.01 to 10 uM at -80 mV holding potential preincubated for 30 secs followed by GABA stimulation for 2 secs by Q-patch assay relative to control. It counts as cell-based. The settings on record: filed as positive allosteric modulator, dose 0.01-10 µM, time 32.0 sec.

Series [5] can be described thus: MRTlast in male Sprague-Dawley rat at 24.4 micromol/kg, IG administered as single dose and measured upto 24 hrs by LC-MS/MS analysis. It counts as ADME. The settings on record: in vivo, po, dose 24.4 µmol/kg.
Series [6] in a line: Drug concentration in Sprague-Dawley rat brain at 24.4 micromol/kg, IG measured after 2 hrs by LC-MS/MS analysis. Format: ADME, tissue-based. As to conditions: in vivo, po, dose 24.4 µmol/kg.
Series [7] has as its target Gamma-aminobutyric acid receptor subunit alpha-4/beta3/delta (Homo sapiens) (UniProt P28472+P48169+O14764). Briefly: Positive allosteric modulation of extrasynaptic alpha4beta3delta GABA-A receptor (unknown origin) transfected in CHO cells assessed as potentiation of GABA-induced peak current amplitude by measuring maximal efficacy at 0.01 to 10 uM at -80 mV holding potential preincubated for 30 secs followed by GABA stimulation for 2 secs by manual patch assay relative to control. The settings on record: filed as positive allosteric modulator, dose 0.01-10 µM, time 32.0 sec. It counts as cell-based.

The nature of series [8]: Initial drug concentration in male Sprague-Dawley rat at 6.1 micromol/kg, iv administered as single dose and measured upto 24 hrs by LC-MS/MS analysis. Format: ADME, organism-based. The settings on record: in vivo, dose 6.1 µmol/kg.
Series [9] is described as follows: Genotoxicity in Salmonella typhimurium TA102 assessed as induction of reverse mutation in absence of rat liver S9 fraction. It counts as toxicity. As to conditions: salmonella enterica subsp. enterica serovar typhimurium.
The target in a further series is Cytochrome P450 2C9 (Homo sapiens, UniProt P11712). The series is described as follows: Inhibition of CYP2C9 (unknown origin). It counts as ADME.
Chain of Cytochrome P450 2C9 (P11712 whole entry): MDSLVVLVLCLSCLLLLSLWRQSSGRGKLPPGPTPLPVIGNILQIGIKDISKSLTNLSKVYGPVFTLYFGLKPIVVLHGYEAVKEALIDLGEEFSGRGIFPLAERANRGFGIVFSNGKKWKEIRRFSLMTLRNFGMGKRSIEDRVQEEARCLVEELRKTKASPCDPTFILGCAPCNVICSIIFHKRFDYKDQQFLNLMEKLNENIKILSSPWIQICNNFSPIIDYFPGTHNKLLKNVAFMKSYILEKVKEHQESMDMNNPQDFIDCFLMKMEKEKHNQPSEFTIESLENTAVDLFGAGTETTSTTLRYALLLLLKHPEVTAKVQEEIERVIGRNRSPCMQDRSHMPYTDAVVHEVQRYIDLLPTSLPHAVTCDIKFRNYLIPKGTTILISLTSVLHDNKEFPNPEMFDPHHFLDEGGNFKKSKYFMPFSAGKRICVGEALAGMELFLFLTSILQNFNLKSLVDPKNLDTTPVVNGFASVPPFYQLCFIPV
Series [10] can be described thus: Cmax in male Sprague-Dawley rat at 24.4 micromol/kg, IG administered as single dose and measured upto 24 hrs by LC-MS/MS analysis. The settings on record: in vivo, po, dose 24.4 µmol/kg. Format: ADME.
The target in another series is T1, Cytochrome P450 1A2 (Homo sapiens, UniProt P05177).
T1 sequence (P05177 whole entry): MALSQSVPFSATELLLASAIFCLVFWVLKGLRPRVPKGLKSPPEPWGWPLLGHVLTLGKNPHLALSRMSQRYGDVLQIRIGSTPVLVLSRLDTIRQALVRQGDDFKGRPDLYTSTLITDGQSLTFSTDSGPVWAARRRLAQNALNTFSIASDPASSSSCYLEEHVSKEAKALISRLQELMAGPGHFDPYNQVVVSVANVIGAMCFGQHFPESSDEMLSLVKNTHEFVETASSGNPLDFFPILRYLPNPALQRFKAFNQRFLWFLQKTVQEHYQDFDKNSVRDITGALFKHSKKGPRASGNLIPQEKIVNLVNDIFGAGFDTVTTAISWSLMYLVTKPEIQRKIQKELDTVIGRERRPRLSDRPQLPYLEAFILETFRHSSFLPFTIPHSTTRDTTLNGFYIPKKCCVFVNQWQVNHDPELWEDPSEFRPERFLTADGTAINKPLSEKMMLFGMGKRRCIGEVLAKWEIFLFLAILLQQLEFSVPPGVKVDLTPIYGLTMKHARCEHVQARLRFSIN
The series is described as follows: Inhibition of CYP1A2 (unknown origin). It counts as ADME.

Series [11] is described as follows: Genotoxicity in Salmonella typhimurium TA1535 assessed as induction of reverse mutation in absence of rat liver S9 fraction. Format: toxicity. The settings on record: salmonella enterica subsp. enterica serovar typhimurium.
Series [12] in a line: Genotoxicity in Salmonella typhimurium TA1535 assessed as induction of reverse mutation in presence of rat liver S9 fraction. Format: toxicity, subcellular. As to conditions: salmonella enterica subsp. enterica serovar typhimurium.
Series [13] is described as follows: Bioavailability in male Sprague-Dawley rat at 24.4 micromol/kg, IG administered as single dose and measured upto 24 hrs by LC-MS/MS analysis. The settings on record: in vivo, po, 24.4 µmol/kg. It counts as ADME, organism-based.
In another series the target is T2, Cytochrome P450 2B6 (Homo sapiens, UniProt P20813).
T2 sequence (P20813 whole entry): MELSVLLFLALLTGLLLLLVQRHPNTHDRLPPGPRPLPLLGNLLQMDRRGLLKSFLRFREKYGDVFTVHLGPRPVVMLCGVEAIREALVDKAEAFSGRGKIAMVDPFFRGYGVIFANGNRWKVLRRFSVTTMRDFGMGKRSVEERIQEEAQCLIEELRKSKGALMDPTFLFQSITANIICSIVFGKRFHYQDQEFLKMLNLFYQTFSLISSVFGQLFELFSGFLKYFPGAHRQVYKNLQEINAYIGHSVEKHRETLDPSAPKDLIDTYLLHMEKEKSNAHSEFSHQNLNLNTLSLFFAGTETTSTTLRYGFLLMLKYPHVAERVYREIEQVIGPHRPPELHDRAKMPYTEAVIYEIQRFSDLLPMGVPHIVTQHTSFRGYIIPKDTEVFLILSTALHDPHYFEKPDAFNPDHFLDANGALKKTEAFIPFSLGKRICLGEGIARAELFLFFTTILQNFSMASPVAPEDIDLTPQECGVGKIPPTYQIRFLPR
The series is described as follows: Inhibition of CYP2B6 (unknown origin). Format: ADME.

Series [14] can be described thus: Genotoxicity in Salmonella typhimurium TA98 assessed as induction of reverse mutation in absence of rat liver S9 fraction. It counts as toxicity. The settings on record: salmonella enterica subsp. enterica serovar typhimurium.
Series [15] in a line: Half life in male Sprague-Dawley rat at 24.4 micromol/kg, IG administered as single dose and measured upto 24 hrs by LC-MS/MS analysis. It counts as ADME. As to conditions: in vivo, po, dose 24.4 µmol/kg.
Series [16] in a line: Ratio of Cmax in IG dosed Sprague-Dawley rat brain to plasma. It counts as ADME, organism-based. As to conditions: brain and plasma, po, read-out: BPR.
The target of series [17] is GABA-A receptor; anion channel. The series is described as follows: Inhibition of [35S]TBPS binding to GABA-A receptor in Sprague-Dawley rat brain cortical membrane incubated for 90 mins by liquid scintillation spectrometry. Format: cell membranes, Cortex.
Series [18] concerns Rattus norvegicus. The series is described as follows: Antiseizure activity in PTZ-induced male Sprague-Dawley rat acute seizure model assessed as increase in latency to tonic seizures at 24.4 micromol/kg, po pretreated for 1 hr followed by PTZ addition and measured after 60 mins (reference value: 77 +/- 13.4 sec). The settings on record: dose 24.4 µmol/kg, time 120 min, 2 h. Format: functional.

A short description of series [19]: Toxicity in male Sprague-Dawley rat assessed as risk of consciousness loss by measuring time for first loss of righting reflex at 9.8 micromol/kg, ip measured within 4 hrs. It counts as organism-based. As to conditions: in vivo, dose 9.8 µmol/kg.
Series [20] relates to Rattus norvegicus. The series is described as follows: Antiseizure activity in PTZ-induced male Sprague-Dawley rat acute seizure model assessed as increase in latency to tonic seizures at 12.2 micromol/kg, po pretreated for 1 hr followed by PTZ addition and measured after 60 mins (reference value: 77 +/- 13.4 sec). The settings on record: dose 12.2 µmol/kg, time 120 min, 2 h. Format: functional.

`C[C@@]1(O)CC[C@H]2[C@H](CC[C@@H]3[C@@H]2CC[C@]2(C)[C@@H](C(=O)Cn4cnn(-c5cc(F)nc(F)c5)c4=O)CC[C@@H]32)C1`: the Time in the series on Rattus norvegicus [1] is 3600 s; in [2] it was 65 min. The pKa (as a rule, the pH at which an ionisable group is half protonated) in series [3] is above 12. Moreover, the figures for the maximal response (Emax) in [4] and in series [7] were 675% and 1070%, respectively. In addition, the mean residence time MRT last – broadly, a mean duration of stay, worked out from the concentration-time curve – at 24 h in series [5] turned out to be 7.74 h. In series [6], this molecule returned a Ct of 3404 nmol/kg. Besides, the C0 at 24 h in [8] stood at 1870 nM. In addition, the Activity result in series [9], in series [11], in series [12] and in series [14] was “Non-Toxic” each time. For the same molecule, the IC50 against Cytochrome P450 2C9, at Cytochrome P450 1A2 and against Cytochrome P450 2B6 was above 30 µM in each case. Besides, the Cmax (usually the highest concentration seen after dosing) in [10] stood at 2530 nM. The bioavailability (as a rule, dose-corrected exposure relative to a reference, in per cent) in [13] worked out at 99.6%. Also, the half-life (in general, how long it takes for the measured level to halve) in series [15] is 6.58 h. In addition, in [16], the Kp came to 1.5.

Regarding `C[C@@]1(O)CC[C@H]2[C@H](CC[C@@H]3[C@@H]2CC[C@]2(C)[C@@H](C(=O)Cn4cc(C#N)cn4)CC[C@@H]32)C1` [ZURANOLONE], the pKa in series [3] was above 12. For the same molecule, the Emax (as a rule, the maximal effect, on the per cent scale that the assay sets) is 980% in series [4] and 1040% in series [7]. The MRT last at 24 h in [5] was 4.46 h. For the same molecule, in [6], the Ct turned out to be 2220 nmol/kg. Also, the IC50 (as a rule, the point on the concentration scale where inhibition reaches its midpoint) in series [17] is 0.007 µM; on Cytochrome P450 2C9, above 30 µM; against Cytochrome P450 1A2 it was above 30 µM; against Cytochrome P450 2B6 it was above 30 µM. In [8], this molecule displayed a C0 at 24 h of 3440 nM. Moreover, the Cmax in [10] worked out at 2290 nM. In addition, the Time in the series with Rattus norvegicus [18] was 2850 s; in [19], 46 min; in the series on Rattus norvegicus [20], 1639 s. This molecule showed a bioavailability in series [13] of 57.7%. This molecule also had a half-life in series [15] of 3.8 h.
